According to patent US20200399242A1, “NOVEL COMPOUNDS” (INFLAZOME LIMITED, priority 2018, published 2020):
Structures can show the parent of a compound that is named as a salt.

Molecular target: T1, NLRP3 (Homo sapiens, UniProt Q96P20)
T1 construct: Seed THP-1 cells (25,000 cells/well) containing 1.0 μg/ml LPS in 40 μl of RPMI medium; host or cells: THP-1 cells
Assay: THP-1 cells pyroptosis assay (LPS-primed, nigericin-triggered, resazurin read-out)
Type: cell-based
Details: 1 μg/ml LPS, compound 3 hrs, nigericin 5 μM 1 hr, resazurin viability
Method: THP-1 cells (ATCC #TIB-202) were grown in RPMI containing L-glutamine (Gibco #11835) supplemented with 1 mM sodium pyruvate (Sigma #S8636) and penicillin (100 units/ml)/streptomycin (0.1 mg/ml) (Sigma #P4333) in 10% Fetal Bovine Serum (FBS) (Sigma #F0804). The cells were routinely passaged and grown to confluency (˜10^6 cells/ml). On the day of the experiment, THP-1 cells were harvested and resuspended into RPMI medium (without FBS). The cells were then counted and viability (>90%) checked by Trypan blue (Sigma #T8154). Appropriate dilutions were made to give a concentration of 625,000 cells/ml. To this diluted cell solution was added LPS (Sigma #L4524) to give a 1 μg/ml Final Assay Concentration (FAC). 40 μl of the final preparation was aliquoted into each well of a 96-well plate. The plate thus prepared was used for compound screening. The following method step-by-step assay was followed for compound screening. • 1. Seed THP-1 cells (25,000 cells/well) containing 1.0 μg/ml LPS in 40 μl of RPMI medium (without FBS) in 96-well, black walled, clear bottom cell culture plates coated with poly-D-lysine (VWR #734-0317) • 2. Add 5 μl compound (8 points half-log dilution, with 10 μM top dose) or vehicle (DMSO 0.1% FAC) to the appropriate wells • 3. Incubate for 3 hrs at 37° C., 5% CO2 • 4. Add 5 μl nigericin (Sigma #N7143) (FAC 5 μM) to all wells • 5. Incubate for 1 hr at 37° C., 5% CO2 • 6. At the end of the incubation period, spin plates at 300×g for 3 mins and remove supernatant • 7. Then add 50 μl of resazurin (Sigma #R7017) (FAC 100 μM resazurin in RPMI medium without FBS) and incubate plates for a further 1-2 hrs at 37° C. and 5% CO2 • 8. Plates were read in an Envision reader at Ex 560 nm and Em 590 nm • 9. IC50 data is fitted to a non-linear regression equation (log inhibitor vs response-variable slope 4-parameters) The results of the pyroptosis assay are summarised in Table 1 below as THP IC50.

T1 sequence (Q96P20 whole entry): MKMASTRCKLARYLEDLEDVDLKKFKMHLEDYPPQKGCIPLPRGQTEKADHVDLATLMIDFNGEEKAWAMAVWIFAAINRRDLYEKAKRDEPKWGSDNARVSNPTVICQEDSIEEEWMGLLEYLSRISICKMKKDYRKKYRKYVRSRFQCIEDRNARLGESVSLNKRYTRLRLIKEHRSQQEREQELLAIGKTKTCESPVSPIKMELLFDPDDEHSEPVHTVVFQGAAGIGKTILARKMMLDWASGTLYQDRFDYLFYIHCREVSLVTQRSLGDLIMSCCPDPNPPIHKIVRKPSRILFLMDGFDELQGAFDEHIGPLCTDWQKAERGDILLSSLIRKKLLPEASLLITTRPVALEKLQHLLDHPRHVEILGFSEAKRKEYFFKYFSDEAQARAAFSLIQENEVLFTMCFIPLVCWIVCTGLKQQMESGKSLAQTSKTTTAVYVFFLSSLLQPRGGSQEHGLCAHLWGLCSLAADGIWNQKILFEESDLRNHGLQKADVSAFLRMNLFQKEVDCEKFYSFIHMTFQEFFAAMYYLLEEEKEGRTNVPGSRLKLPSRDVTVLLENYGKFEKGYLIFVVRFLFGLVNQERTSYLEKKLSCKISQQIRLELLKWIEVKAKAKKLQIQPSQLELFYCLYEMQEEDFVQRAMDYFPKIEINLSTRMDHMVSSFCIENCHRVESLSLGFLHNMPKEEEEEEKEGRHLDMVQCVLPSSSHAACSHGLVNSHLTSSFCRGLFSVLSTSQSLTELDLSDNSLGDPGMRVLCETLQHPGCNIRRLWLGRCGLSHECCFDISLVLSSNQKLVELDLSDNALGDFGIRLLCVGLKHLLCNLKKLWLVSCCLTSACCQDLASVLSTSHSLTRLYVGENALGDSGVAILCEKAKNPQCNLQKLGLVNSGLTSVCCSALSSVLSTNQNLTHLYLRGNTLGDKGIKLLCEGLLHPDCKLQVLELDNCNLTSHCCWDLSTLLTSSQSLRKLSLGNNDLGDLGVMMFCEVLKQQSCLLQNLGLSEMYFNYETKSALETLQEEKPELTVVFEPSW

Compound	IC50
COc1cc(-c2cc(F)cc(C(C)C)c2CC(=O)NS(=O)(=O)c2ccc(=O)n(C)c2)ccn1 [Example 1, 2-(4-Fluoro-2-isopropyl-6-(2-methoxypyridin-4-yl)phenyl)-N-((1-methyl-6-oxo-,6-dihydropyridin-3-yl)sulfonyl)acetamide, potassium salt]	5 to 10 µM
COc1cc(-c2cc(F)cc(C(C)C)c2CC(=O)NS(=O)(=O)c2cn(C)c(=O)n(C)c2=O)ccn1 [Example 3, N-((1,3-Dimethyl-2,4-dioxo-1,2,3,4-tetrahydropyrimidin-5-yl)sulfonyl)-2-(4-fluoro-2-isopropyl-6-(2-methoxypyridin-4-yl)phenyl) acetamide]	≤ 1 µM
COc1cc(-c2cc(F)cc(C(C)C)c2CC(=O)NS(=O)(=O)c2ccc(=O)n(C(C)C)c2)ccn1 [Example 2, 2-(4-Fluoro-2-isopropyl-6-(2-methoxypyridin-4-yl)phenyl)-N-((1-isopropyl-6-oxo-1,6-dihydropyridin-3-yl)sulfonyl)acetamide, potassium salt]	1 to 5 µM
